Converted amounts (≈) assume the structure as drawn. “And” between values parts separate entries of the source, which are not always exact repeats. Identical values can stand only once. Like-named read-outs stand apart in the source and are kept apart here.
Tests used:
[1] = test system: VERO cells; assay: Cytotoxicity on VERO cells (MTT), anti-T. cruzi study; conditions: Chlorocebus sabaeus, Vero, read-out: IC50 VERO, Table 3
[2] = as above; conditions: African green monkey, VERO cells
[3] = test system: axenic amastigotes of L. amazonensis (strain MHOM/BR/76/LTB-012); assay: microbe, parasite or virus in culture; conditions: Leishmania amazonensis
[4] = test system: L. braziliensis PER006; assay: Activity against macrophages infected with Leishmania amastigotes; conditions: Leishmania braziliensis, Macrophage, 48 h, read-out: IC50 L. braziliensis PER006
Experimental: (§3) A cloned line of Leishmania amazonensis(strain MHOM/BR/76/LTB-012) was used in all experiments. Axenically grown amastigote forms of L. amazonensis were maintained by weekly subpassages in MAA/20 medium (Sereno and Lemesre, Antimicrobial Agents and Chemotherapy 41, 972-976 (1997)) at 32±1° C. in 25 cm^2 tissue culture flasks. L. peruviana (strain MHOM/PE/LCA08) and L. braziliensis (strainMHOM/PE/PER006) were maintained in the promastigote stage in a biphasic medium (blood agar with 0.89% NaCl, pH 7.4) at 24° C., with sub-passage every 3 to 4 days. Promastigotes (5×10^6 parasites) were then transferred to 25 cm2 tissue culture flasks containing 5 ml of M199 medium supplemented with 10% foetal bovine serum (FBS), pH 7.4. After 4 days, exponential phase promastigotes were centrifuged for 10 minutes at 1500 g and 4° C. The supernatant was discarded and replaced by fresh M199 medium supplemented with 20% FBS, pH 5.5. Axenic amastigotes transformation was then induced by increasing the temperature to 34° C. and incubating for 96 h (Teixeira et al., Parasitology Research 88, 963-968 (2002)).
(§4) Extracted cells were immediately deposited on sterile 4×4 mm cover glasses and placed in each well of a 96-well plate. Plates were incubated for 24 h at 37° C., 5% CO2 to allow cell adhesion (Castillo et al, Journal of Ethnopharmacology 112, 410-414 (2007)). Pre-warmed complete M199 medium was used twice to remove non-adherent cells. A neutral red method (Fautz et al., Mutation Research 253, 173-179 (1991)) was employed to determine cell concentration. Approximately 7×10^4 viable cells were deposited in each well for adhesion.
(§5) Infection of macrophages by amastigotes was determined as follows. […] Twelve hours after infection, a solution of the compounds to be tested was added to the cultures at various concentrations and maintained at 37° C. in 5% CO2 for a further forty-eight hours more. The plates were fixed with methanol and stained with 10% Giemsa stain. The percentage of infected macrophages was determined microscopically at 100 times magnification. The number of intracellular amastigotes was determined in 300 cells. Following Delorenzi et al. Antimicrobial Agents and Chemotherapy, 45, 1349-1354 (2001)) the percentage of infection rate (% IR) of each culture was calculated as follows: % IR=100−(infection rate of the treated culture/infection rate of the untreated culture)×100.
(§6) All experiments were performed in triplicate. ANOVA was used to test for statistical significance of differences (Epi-Info, Statview student program). The total parasite burden was calculated as a mean number of amastigotes per cells multiplied by the number of infected macrophages.

[5] = test system: peritoneal macrophages; assay: Toxicity to peritoneal macrophages (Trypan Blue count); type: cell-based, BALB/C mouse; conditions: Mus musculus, Peritoneal macrophage, 48 h; Table 7; read-out: IC50 Macrophage
[6] = test system: PC3 cells; assay: Cell growth inhibition bioassay (sulforhodamine B); type: cell-based; conditions: Homo sapiens, PC-3; 48 h, SRB; read-out: GI50 in indicated cell line: PC3
Experimental: The cytotoxicity of compounds was assayed as follows. […] Appropriate solvent controls were tested for comparison. The percent inhibition of cell growth relative to the control was evaluated colorimetrically using a sulforhodamine B dye by comparison to the control. The calorimetric procedure followed that published in Skehan et al., J. Nat. Cancer Inst., […], pp. 1107-1112 (1990) and Boyd & Paull, Drug Dev. Res., Vol. 34, pp. 91-109 (1995). […] The cell lines are: 3T3 cells are BALB/3T3 clone A31 embryonic mouse fibroblast cells; H460 cells are human large cell lung cancer cells; DU145 cells are human prostate carcinoma cells; MCF-7 cells are human breast adenocarcinoma cells; M-14 cells are human melanoma cells; HT-29 cells are human colon adenocarcinoma cells; PC3 cells are human prostate adenocarcinoma cells; K562 cells are human chronic myelogenous leukemia cells; and VERO cells are African Green Monkey kidney epithelial cells.

[7] = test system: Trypanosoma cruzi (Tulahuen C4); assay: In vitro anti-T. cruzi activity (β-galactosidase CPRG colorimetric assay in VERO monolayer); type: cell-based; conditions: for IC50 / inhibition at 10 µg/mL: Trypanosoma cruzi, TULAHUEN, Vero; for inhibition at 10 µg/mL: 120 h, read-out: T. cruzi Inhib. (%)
[8] = test system: L. amazonensis Lma CL1; assay: Activity against macrophages infected with Leishmania amastigotes; conditions: Leishmania amazonensis, Macrophage, 48 h, read-out: IC50 L. amazonensis Lma CL1
Experimental: as §3, §4, §5, §6

[9] = test system: L. peruviana LCA08; assay: as above; conditions: Leishmania peruviana, Macrophage, 48 h, read-out: IC50 L. peruviana LCA08
[10] = test system: 3T3 cells; assay: Cell growth inhibition bioassay (sulforhodamine B); type: cell-based, mouse; conditions: Mus musculus, NIH3T3; 48 h, SRB; read-out: GI50 in indicated cell line: 3T3
Method in brief: (§1)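 Cells were exposed to compound alongside matched solvent controls, then stained with sulforhodamine B. Percent growth inhibition was calculated from dye absorbance against the control.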

[11] = test system: MCF-7 cells; assay: Cell growth inhibition bioassay (sulforhodamine B); type: cell-based, human; conditions: Homo sapiens, MCF7; 48 h, SRB; read-out: GI50 in indicated cell line: MCF-7
Method in brief: (§2)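 Human cancer cells (MCF-7 breast, DU145 and PC3 prostate, H460 large cell lung) were treated with compounds. Growth relative to solvent control was quantified by SRB protein stain.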

[12] = test system: HT-29 cells; assay: Cell growth inhibition bioassay (sulforhodamine B); type: cell-based, human; conditions: Homo sapiens, HT-29; 48 h, SRB; read-out: GI50 in indicated cell line: HT-29
Method in brief: as §1

[13] = test system: H460 cells; assay: Cell growth inhibition bioassay (sulforhodamine B); type: cell-based, human; conditions: Homo sapiens, NCI-H460; 48 h, SRB; read-out: GI50 in indicated cell line: H460
Method in brief: as §1

[14] = test system: M-14 cells; assay: Cell growth inhibition bioassay (sulforhodamine B); type: cell-based, human; conditions: Homo sapiens, M14; 48 h, SRB; read-out: GI50 in indicated cell line: M-14
Method in brief: as §1

[15] = test system: K562 cells; assay: Cell growth inhibition bioassay (sulforhodamine B); type: cell-based, human; conditions: Homo sapiens, K562; 48 h, SRB; read-out: GI50 in indicated cell line: K562
Method in brief: as §1

[16] = test system: DU145 cells; assay: Cell growth inhibition bioassay (sulforhodamine B); type: cell-based, human; conditions: Homo sapiens, DU-145; 48 h, SRB; read-out: GI50 in indicated cell line: DU145
Method in brief: as §2

[17] = Cytotoxicity VERO cell (Table 6); conditions: African green monkey, VERO cells
[18] = Toxicity to peritoneal macrophages (Trypan Blue count); type: cell-based, BALB/C mouse; conditions: BALB/C, mouse
[19] = test system: M. tuberculosis H37Rv; assay: Conventional aerobic (MABA) culture assay, luminescence MIC; type: cell-based, Mycobacterium tuberculosis; conditions: for MIC: Mycobacterium tuberculosis, 168 h, aerobic, 7 days, H37Rv
[20] = test system: VERO cells; assay: Cell growth inhibition bioassay (sulforhodamine B); type: cell-based, African Green Monkey; conditions: Chlorocebus sabaeus, Vero; 48 h, SRB; read-out: GI50 in indicated cell line: VERO
Method in brief: as §1

[21] = test system: non-replicating persistence Mycobacterium tuberculosis (NRP-TB); assay: Low oxygen recovery assay (LORA); type: cell-based; conditions: value in brackets
[22] = test system: axenic amastigotes of L. amazonensis (strain MHOM/BR/76/LTB-012); conditions: Table 8b
[23] = test system: M. tuberculosis MDR; assay: Anti-tuberculosis bioassay (tetrazolium microplate MIC); type: cell-based; conditions: Mycobacterium tuberculosis, read-out: Mycobacterium MIC MDR
[24] = test system: M. tuberculosis H37Rv; assay: as above; type: cell-based; conditions: Mycobacterium tuberculosis, read-out: Mycobacterium MIC H37Rv, Table 5
[25] = 10 μg/mL of each compound, 120 hours
[26] = read-out: IC50 Cytotoxicity Against Amastigotes
[27] = IC50 Cytotoxicity Against Macrophages

| Structure (SMILES) | GI50 [10] | GI50 [11] | GI50 [12] | GI50 [13] | GI50 [14] | GI50 [15] | GI50 [16] | IC50 ([2]; Cytotoxicity VERO Lab B, Lab B) | IC50 ([3]; read-out: L. amazonensis IC50) | IC50 at 48 h ([18]; Cytotoxicity Macrophages IC50) | MIC [19] | GI50 [20] | Selectivity Index [22] | IC50 [3, 26] | IC50 at 48 h [18, 27] | inhibition at 10 µg/mL [7, 25] | MIC [23] | MIC [24] | further results |
| --- | --- | --- | --- | --- | --- | --- | --- | --- | --- | --- | --- | --- | --- | --- | --- | --- | --- | --- | --- |
| COc1cc(O)cc(O)c1C(=O)/C=C/c1ccc2c(c1)OCO2 [Compound I-06, (2E)-3-(1,3-Benzodioxol-5-yl)-1-(2,4-dihydroxy-6-methoxyphenyl)-2-propen-1-one] | 5.1 µM | 20.4 µM | 20.7 µM | 15.6 µM | 22.6 µM | 16.2 µM | 12.4 µM |  |  |  |  |  |  |  |  |  |  |  | IC50 [1]: 25.5 µM; IC50 ([2]; IC50 - VERO Cytotoxicity, Table 2): 8 µg/mL (≈ 25.5 µM); IC50 ([3]; 72 h, read-out: IC50 L. amazonensis): 4.1 µM; IC50 [4]: 8.6 µM; IC50 [5]: 157 µM; GI50 [6]: 18.5 µM; T. cruzi Inhib. (%) [7, 25]: 49.61% and 69.78%; IC50 ([7]; Table 2, read-out: IC50 - T. cruzi): 2.97 µg/mL; IC50 ([7]; Table 3, read-out: IC50 T. cruzi): 9.4 µM; IC50 [8]: 16.6 µM; IC50 [9]: 19.7 µM |
| COc1ccc(/C=N\Nc2ncnc3sc4c(c23)CCCC4)cc1 [II-10] | 5 µg/mL | 4.2 µg/mL | 5.9 µg/mL | 5.8 µg/mL | 5.5 µg/mL | 4.7 µg/mL | 7.8 µg/mL | 6 µg/mL (≈ 17.7 µM) | 16.1 µM | 21.6 µM | 24.1 µg/mL (≈ 71.2 µM) | 6.4 µg/mL (≈ 18.9 µM) | 1.3 |  |  |  |  |  | IC50 [17]: 76.7 µg/mL (≈ 227 µM); Selectivity Index Lab B ([7]; IC50, VERO/IC50, T. cruzi, Lab B): 1.1; IC50 ([7]; Lab B, read-out: T. cruzi IC50 Lab B): 5.4 µg/mL; Selectivity Index H37Rv ([19]; VERO vs MABA MIC): 3.2; MIC ([21]; Mycobacterium tuberculosis, anaerobic 10 days, 28 hour recovery): 9.1 µg/mL (≈ 26.9 µM); Selectivity Index LORA ([21]; VERO vs LORA MIC): 8.5 |
| COc1cc(/C=N\Nc2ncnc3sc4c(c23)CCCC4)cc(OC)c1OC [II-14] | 9 µg/mL | 4.2 µg/mL | 4.6 µg/mL | 11.3 µg/mL | 6.2 µg/mL | 1.9 µg/mL | 9 µg/mL | 11 µg/mL (≈ 27.6 µM) | 2.9 µM | 3.6 µM | > 100 µg/mL | 9.7 µg/mL (≈ 24.3 µM) | 1.2 | 10.5 µM | > 10 µM | 2% | > 25 µg/mL | > 25 µg/mL | IC50 ([7]; Lab A, read-out: T. cruzi IC50 Lab A): 3 µg/mL |
| O=[N+]([O-])c1ccc(/C=N\Nc2ncnc3sc4c(c23)CCCC4)cc1 [II-22] | > 62.5 µg/mL | > 62.5 µg/mL | > 62.5 µg/mL | > 62.5 µg/mL | > 62.5 µg/mL | > 62.5 µg/mL | > 62.5 µg/mL |  | 13.6 µM | 70.4 µM | > 100 µg/mL | > 62.5 µg/mL | 5.2 | 33.8 µM | > 10 µM | 11.6% | > 25 µg/mL | > 25 µg/mL |  |

Source: US9061984B2 (University of Louisville Research Foundation, Inc., priority 2008, dated 2015)
